Reference: patent US20160243080A1, “FORMULATIONS OF ANGIOTENSIN RECEPTOR BLOCKERS” (priority 2015, published 2016)
Entries after “also recorded” stand apart in the source; their conditions may differ. Where two headings read alike, the source gives them in different places.

Columns and labels:
wounds of AT2R^−/− mice = test: Wound healing in AT2R^−/− mice; type: in vivo, mouse
Source text: Pharmacologically, ARBs and ACE inhibitors differ on their mechanism of action and the level at which they block RAS. While ARBs block RAS distally at the AT1R level, ACEi block the conversion of Angiotensin I to Angiotensin II and thereby diminishing available Angiotensin II to bind to either AT1R or AT2Rs. […] Collagen is a marker for assessing skin strength.

AT2R mRNA = test: mRNA expression in treated mouse wounds; type: in vivo
in vivo = conditions: Yucatan miniature swine, pig
Method: Plasma standards and samples (50 μL) were extracted in 500 μL methanol containing 100 nM losartan (internal standard). Extracts were centrifuged at 16000×g for 5 minutes at 4° C. to precipitate proteins. Extracts (500 μL) were transferred to a new tube and dried in vacuum at 45° C. for 90 minutes. Samples were reconstituted in 30% acetonitrile in water (50 μL) and centrifuged as above. Supernatants (45 μL) were transferred to a 96 well plate. Analytes (10 μL) were separated on an Agilent 1290 UPLC system with a c18 column using a gradient run of 50-95% acetonitrile over 2 minutes at 0.4 mL/minute and detected on an Agilent 6520 QTOF mass spectrometer. Standards within the quantifiable range were used to generate a standard curve.
Prior to surgery (Day 0), Day 10 (pre-dose), Day 18 (pre-dose), and Day 57 (prior to termination); blood samples (3 mL/animal) were collected, processed to plasma by centrifuging for approximately 15 minutes at 3000 rpm at 4° C., transferred into labeled cryovials, immediately frozen on dry ice, and shipped to the sponsor for future analysis.

[1] = type: in vivo; conditions: body weight, blood pressure, blood glucose, serum chemistry and hematology
Source text: Prior to this study, selected male animals had been castrated and fitted with vascular access ports (VAP) for diabetic induction. After these animals had fully recovered from VAP procedures, diabetes was chemically-induced using alloxan. Following induction, the glucose levels of the animals was monitored and regulated with Vetsulin (or equivalent). A glucometer and/or other appropriate device was used to determine glucose levels of the animals. VAP procedures, diabetic induction, and recovery periods were conducted under a separate SRC standard protocol prior to the initiation of this study. Glucose levels of all study animals were monitored and regulated at least once daily during the study to keep within targeted glucose range (target 200 to 600 mg/dL). Blood pressure was determined for each animal on Days 7, 8, 18, and 57 (prior to termination).
General in-cage/pen observations for mortality/moribundity were made at least daily.
Animals were weighed once during acclimation (Day −1) and again prior to termination (Day 57).
Day −5 (acclimation), Day 10 (pre-dose), Day 18 (pre-dose) and Day 57 (prior to termination); blood samples for CBC and serum chemistries were collected for clinical pathology analysis from each animal and analyzed by SRC. • Hematology: Blood samples (3 mL/animal) were collected from all animals. K3EDTA was used as anticoagulant. […]

wound = test: Diabetic mouse and pig wound models, timing of topical application (summary statements); type: in vivo; conditions: first 1-7 days after wounding
[2] = tested on: healing skin of aged diabetic pigs; test: Masson's trichrome and H&E staining of skin sections from aged diabetic pigs; type: in vivo, pig
Source text: Using Mason Trichrome (FIG. 22, panels A-H) and H&E stains (FIG. 22, panel I). Collagen content and other histological changes in healing skin were examined. Tensiometry was employed to quantify differences in tensile strength between placebo and valsartan treated wounds.

[3] = tested on: wounds of diabetic (Leprdb) mice; test: Mouse model wound healing experiments, planimetric wound closure; type: in vivo; conditions: topical, applied from 7 days after wounding (proliferation/remodeling phase)
Source text: In FIG. 11, the “ratio” (y-axis) reflects the percentage of wound closure as compared to the wound size on day 7 in the same animal.

[4] = tested on: healing skin of aged diabetic pigs; test: Tensiometry of healed pig skin; type: in vivo; conditions: vs placebo
Method: At termination, an approximately 8 mm×16 mm tensiometry sample was collected from the dorsal side of each wound site that spanned the cranial to caudal aspect of the wound for analysis. This procedure was performed and data maintained by sponsor personnel. No details of analysis or results were included in this in-life report. […] Using Mason Trichrome (FIG. 22, panels A-H) and H&E stains (FIG. 22, panel I). Collagen content and other histological changes in healing skin were examined. Tensiometry was employed to quantify differences in tensile strength between placebo and valsartan treated wounds.

[5] = cited from earlier work
Smad1 = test: Immunohistochemistry of Smads in wounds of aged diabetic pigs; type: in vivo; conditions: pig wounds, vs placebo
Source text: (§1) Although not completely characterized, wound healing is greatly influenced by subtle changes of transforming growth factor-beta (TGF-β) superfamily, which is strongly influenced by RAS. TGF-β signaling mediate the phosphorylation of Smad family proteins. Phosphorylated Smads then translocate to the nucleus with the common-mediator (co-Smad) Smad4. Additionally, Smad activity is also regulated by phosphorylation through non-receptor kinases such as p42/44 mitogen activating protein kinase (MAPK) and p38 MAPK. In chronic wounds, failure of TGF-β Smad 2 and 3 phosphorylation and reduction in p42/44 MAPK activity was associated with a slower proliferative rate and impaired healing. RAS has been tightly linked to TGFβ activity but the specific effects of AT1R on the different Smads during wound healing are not known.

Smad2 = test: as above; type: in vivo; conditions: pig wounds, vs placebo
Source text: as §1

[6] = tested on: phosphorylated Smad1, 5 and 9; test: as above; type: in vivo; conditions: pig wounds, vs placebo
Source text: as §1

Smad3 = test: as above; type: in vivo; conditions: pig wounds, vs placebo
Source text: as §1

[7] = tested on: 5 cm full-thickness circular excisional wounds; test: Wound healing in aged diabetic Yucatan miniature swine: digital photography, planimetry, image analysis; type: in vivo, Sus scrofa
Method: Both gels are applied daily. • Wound measurements: On a daily basis, planimetry and digital photography are conducted to assess changes in wound size. • Upon complete closure: Healed wound tissue is collected and analyzed. The study had two treatment groups, which consisted of a test article treatment or a vehicle control treatment on three diabetic (alloxan-induced) Yucatan miniature swine. The acclimation period was 7 days. On Day 0, each study animal underwent surgery to create 8 (4 per side) 5 cm full-thickness circular excisional wounds on their dorsal surface. All wounds were initially topically treated with the same (Treatment A) compound once daily for the first 7 days (Day 0 through Day 6). Thereafter, 4 wounds per animal received daily topical administration of Treatment B, and the other 4 wounds received Treatment C for the duration of the study. All wound sites (8 per animal) were covered with one dressing type. All wounds were observed/evaluated up through final sample collection (Day 57). The experimental study design, including treatment groups and wound sites/time points, and variables to be evaluated and intervals are presented in Tables 1 through 3. On Day 0, the dorso-lateral back area of each animal was closely clipped with electric clippers. Each animal was prepared for surgery using alternating disinfecting scrubs and isopropyl alcohol rinses. The surgical area was draped and a sufficiently large hole(s) was created within the drape(s). The proposed wound sites were outlined using a sterile template and sterile marker. […] Refer to FIG. 3. • a. Using a surgical blade, eight 5 cm full-thickness circular excisional wounds were created (down to the fat layer). All excised tissue from each wound site was discarded. • b. Direct pressure was utilized to obtain hemostasis. • c. […] Each animal was monitored until it had completely recovered from the anesthesia. […] Each animal was monitored until it had completely recovered from anesthesia (if employed). […]

mitochondrial Cox IV = test: Mitochondrial content in aged diabetic pig wounds; type: in vivo
Source text: (§2) An increase in a-SMA and phosphorylated VEGF Receptor 2 was also observed. Finally, the inventors have previously reported the presence of a functional mitochondrial angiotensin system within the mitochondria that played a role in mitochondrial bioenergetics regulation.

p42/44 MAPK = test: Proliferation and angiogenesis markers in aged diabetic pig wounds; type: in vivo
Source text: as §2

[8] = tested on: alpha-smooth muscle actin (α-SMA); test: as above; type: in vivo
Source text: as §2

VEGF Receptor 2 = test: as above; type: in vivo
Source text: as §2

TGFβ3 mRNA = test: mRNA expression in treated mouse wounds; type: in vivo; conditions: P<0.05

CCCCC(=O)N(Cc1ccc(-c2ccccc2-c2nnn[nH]2)cc1)[C@H](C(=O)O)C(C)C [valsartan]
wound healing / wound closure in AT2R^−/− mice (wounds of AT2R^−/− mice): delayed healing | AT2R mRNA (AT2R mRNA): statistically non-significant increase | concentration at 57 day (in vivo): < 1 nM | tolerability / adverse animal health effects [1]: no observed adverse animal health effects | wound healing when applied during the inflammatory phase (wound): made the wounds bigger | wound healing when applied during the inflammatory phase (wound; listed as topical valsartan): significantly impaired wound healing | zone of dermal collagen [2]: expanded zone of dermal collagen | dermal collagen layer thickness ([2]; P<0.001 vs placebo): 6±0.2 mm | epidermal layer thickness ([2]; P<0.001 vs placebo): 192±11 μm | collagen fiber arrangement (ultrastructural analysis) ([2]; vs placebo): more organized collagen fiber arrangement | wound healing / wound closure [3]: more efficacious in accelerating wound healing compared to losartan | tensile strength of healing skin [4]: higher tensile strength | expected blood level of Valsartan in a human on oral Valsartan [5]: 4 to 5 µM | Smad1 expression (Smad1): decrease in the expression | Smad1 expression (Smad1; listed as topical Valsartan): inhibited | Smad2 expression (Smad2): decrease in the expression | Smad2 expression (Smad2; listed as topical Valsartan): inhibited | Smad1, 5, 9 phosphorylation [6]: decreased; also recorded: decrease in the expression | Smad3 expression (Smad3): higher expression | phosphorylated Smad3 (Smad3): higher expression | Smad3 expression (Smad3; listed as topical Valsartan): activated | phosphorylated Smad3 (Smad3; listed as topical Valsartan): increase in phosphorylated Smad3 | epithelization (automated digital analysis of wound images) ([7]; aged diabetic pigs, vs placebo): higher rates of epithelization | slough at the wound base (automated digital analysis of wound images) ([7]; aged diabetic pigs, vs placebo): lower accumulation of slough at the wound base; also recorded: clearance of slough | healing rate / wound closure rate (planimetry) as compared to placebo ([7]; diabetic pigs, daily topical from Day 7, 57 days): faster wound closure rates | mitochondrial Cox IV / mitochondrial numbers (mitochondrial Cox IV): significant increase in the mitochondrial numbers | mitochondrial Cox IV / mitochondrial numbers (mitochondrial Cox IV; listed as topical Valsartan): increase in mitochondrial COX IV | phosphorylation of p42/44 MAPK (p42/44 MAPK): enhanced phosphorylation of p42/44 MAPK | α-SMA [8]: increase | phosphorylated VEGF Receptor 2 (VEGF Receptor 2): increase | decrease in TGFβ3 mRNA (TGFβ3 mRNA): 0.6 fold
